How the values were obtained:
[1] = cited from earlier work
male genitals = test: Irritation test on male genitals / urethra; details: gel in K-Y Lubricating Jelly, about 5% w/v; passive and active rubbing
Method: In all examples, the test subjects were a monogamous married couple, free of genital herpes and all other known sexually transmitted viruses.
The mixture of zinc acetate in K-Y Lubricating Jelly was tested on the male genitals, passively at first and then with active rubbing.
About 0.5 grams were dissolved in several drops of distilled water and tested on the forearm and genitals.

[2] = Acidity tests: pH of 5% w/v zinc salt solutions; details: 5% w/v in distilled deionized water
HIV = HIV precipitation test; details: 2% ZnAc with equal volume of undiluted viral stock
Method: Precipitation tests using HIV were also carried out Biotech Research Laboratories, using 2% ZnAc which was mixed with an equal volume of undiluted viral stock, incubated for 24 hours, and centrifuged at 1500 rpm in a tabletop centrifuge for 5 minutes. The supernatant was sampled ([…]) and serially diluted by medium, at 1:10 followed by 2× dilutions (1:20, 1:40, 1:80, etc) to a maximum dilution of 1:10240. Each dilution was analyzed spectrophotometrically to determine the concentration of viruses suspended in solution. After sampling, each tube was hand-mixed and incubated for 24 hours. The solution near the top of the tube was sampled again, serially diluted, and tested using the ELISA assay. The tube was hand-mixed again, incubated for three more days, and sampled again to obtain Day 5 values.

In the case of Zinc acetate, the ionization rate ([1]; in aqueous solution) is given as at most 30%, the “Reported pK values” ([1]; in water, values below 2 refer to release of a single carboxy anion) is given as 1.03 and the “irritation, male genitals” value (male genitals) is given as “no irritation”. For the same substance, the “pH of solution (rounded)” value [2] was “about 6.2”, the pH of solution ([2]; 0.05 subtracted from meter reading, approximately accurate) was 6.27 and the “virus precipitation” value (HIV) was “substantial precipitation of the virus”.

— patent US6321750A, “Condom lubricants with zinc salts as anti-viral additives” (priority 1999, dated 2001)
